Three molecules from patent US8039623B2, “Inhibitors of serine proteases, particularly HCV NS3-NS4A protease” (Vertex Pharmaceuticals Incorporated, priority 2003, dated 2011) can be followed below.

The assay has as its target HCV NS3-NS4A protease (tNS3 with KK4A) (Hepatitis C virus genotype 1a, UniProt P27958). The assay is described as follows: HCV Enzyme Assay Protocol (HPLC microbore separation of 5AB substrate and products). Type of assay: biochemical. To be noted: 25 nM tNS3, 25 μM KK4A, 25 μM 5AB substrate, 20 min at 30° C.; read-out: Ki range. The method, then:
HCV Enzyme Assay Protocol
HPLC Microbore method for separation of 5AB substrate and products
• NH2-Glu-Asp-Val-Val-(alpha)Abu-Cys-Ser-Met-Ser-Tyr-COOH
A stock solution of 20 mM 5AB (or concentration of your choice) was made in DMSO w/0.2M DTT. This was stored in aliquots at −20° C.
Buffer: 50 mM HEPES, pH 7.8; 20% glycerol; 100 mM NaCl
Total assay volume was 100 μL
The buffer, KK4A, DTT, and tNS3 were combined; distributed 78 μL each into wells of 96 well plate. This was incubated at 30° C. for ˜5-10 min.
2.5 μL of appropriate concentration of test compound was dissolved in DMSO (DMSO only for control) and added to each well. This was incubated at room temperature for 15 min.
Initiated reaction by addition of 20 μL of 250 μM 5 AB substrate (25 μM concentration is equivalent or slightly lower than the Km for 5 AB).
Incubated for 20 min at 30° C.
Terminated reaction by addition of 25 μL of 10% TFA
Transferred 120 μL aliquots to HPLC vials
Separated SMSY product from substrate and KK4A by the following method:
Microbore Separation Method:
Instrumentation: Agilent 1100
• Degasser G1322A • Binary pump G1312A • Autosampler G1313A • Column thermostated chamber G1316A • Diode array detector G1315A Column • Phenonex Jupiter; 5 micron C18; 300 angstroms; 150×2 mm; P/O • 00F-4053-B0 • Column thermostat: 40 C • Injection volume: 100 μL • Solvent A=HPLC grade water+0.1% TFA • Solvent B=HPLC grade acetonitrile+0.1% TFA
• Stop time: 17 min • Post-run time: 10 min.

Where only a bound is given, the exact number is not on record here.

HCV NS3-NS4A protease (tNS3 with KK4A), sequence (P27958 1658-1711): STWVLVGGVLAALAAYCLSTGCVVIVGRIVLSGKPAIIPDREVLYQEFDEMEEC
HCV NS3-NS4A protease (tNS3 with KK4A), sequence (P27958 1027-1208): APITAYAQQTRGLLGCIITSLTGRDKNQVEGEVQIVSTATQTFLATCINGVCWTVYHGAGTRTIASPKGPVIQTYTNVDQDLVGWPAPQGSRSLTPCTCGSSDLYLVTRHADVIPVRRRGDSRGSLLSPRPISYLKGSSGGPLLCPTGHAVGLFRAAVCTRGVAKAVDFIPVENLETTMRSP

What is called Ki is the dissociation constant of the complex between target and ligand, obtained from inhibition or displacement. For the molecule `CCC[C@H](NC(=O)[C@@H]1C[C@@H](Oc2ccc(Cl)cn2)CN1C(=O)[C@@H](NC(=O)[C@@H](NC(=O)c1cnccn1)C1CCCCC1)C(C)(C)C)C(=O)NS(=O)(=O)c1ccccc1` [Compound 2], the Ki was more than 5 µM. Turning to `CCC[C@H](NC(=O)[C@@H]1CC2(CN1C(=O)[C@@H](NC(=O)[C@@H](NC(=O)c1cnccn1)C1CCCCC1)C(C)(C)C)SCCCS2)C(=O)NS(=O)(=O)c1ccccc1` [Compound 1], the Ki is more than 5 µM.

As to `CCC[C@H](NC(=O)[C@@H]1CC2(CN1C(=O)[C@@H](NC(=O)[C@@H](NC(=O)c1[nH]c(C)c(C)c1C(C)=O)C1CCCCC1)C(C)(C)C)SCCCS2)C(=O)NS(=O)(=O)c1ccccc1` [Compound 3], the Ki was in the range of 1 to 5 µM.
